Experimental data taken from US20260085262A1, “ACQ FLUORESCENCE PROBE COMPOSITION, CMC DETERMINATION METHOD, STAIN CLEANING CONCENTRATION DETERMINATION METHOD, DETERGENT DISPENSING CONTROL METHOD, AND DETERGENT DISPENSING CONTROL SYSTEM” (GUANGZHOU BLUEMOON INDUSTRIAL CO., LTD., priority 2024, published 2026).
Read-outs that look alike come from different tables or passages of the source.

What was measured:
[1] = Solubility classification of probe molecule in solvent; details: ACQ probe molecule is CUR; label = solvent
[2] = Hansen solubility parameters (HSP), δ difference and HSP distance Ra
[3] = cited from earlier work; for Flash point / Viscosity / Volatility/Boiling point: solvent; for Solvent solubility in water: classified with reference to solvent data in Pub Chem
[4] = cmc determination with probe solutions in NMP, fluorescence spectrophotometer; type: physicochemical; details: Supreme Brilliant White washing water with fluorescent brightener; probe dissolved in NMP
[5] = as above; type: physicochemical; details: Supreme Clean solution (directly prepared); probe dissolved in NMP; range read from fluorescence intensity-concentration curve
[6] = cmc of detergent solution by fluorescence probe method, fluorescence spectrophotometer (Example 1); type: physicochemical
[7] = document value; cited from earlier work
[8] = cmc by fluorescence probe method, customized photoelectric detector (CD detector); type: physicochemical; details: aqueous solution of Supreme Biotechnology (Bright White) laundry detergent; label = solvent for probe
Description: Here, the liquid to be tested is Supreme Biotechnology (Brilliant White) detergent solution (ZZLB), and the detector is a customized photoelectric detector (CD detector).
In addition, due to the use of the CUR-NMP single organic solvent composition system, the solvent addition amount in Table 6 can be considered equivalent to the addition amount of the probe solution. The cmc value is determined using the fitted line intersection method, i.e., according to the determination results of a fluorescence spectrophotometer, an appropriate wavelength is selected within the corresponding fluorescence emission peak range, and a fluorescence response value-concentration curve is plotted with detergent concentrations on the x-axis and fluorescence intensity on the y-axis. The plateau region and the rising region of the curve are fitted by linear regression, respectively, and the intersection point of two fitted lines is obtained. The surfactant concentration on the x-axis corresponding to the intersection point is the cmc concentration (measured value).
The fluorescence photoelectric detector used in the present invention includes any of the following: • 1) including excitation filter (430 nm), dichroic mirror, and emission filter (495 nm), light source: peak wavelength of 430 nm, waveband of 420 to 440 nm, working current: 0.02 A, working voltage: 5V, the acceptable wavelength range of detector of at least 480-510 nm; • 2) including excitation filter (550 nm), dichroic mirror, and emission filter (638 nm), light source: peak wavelength of 550 nm, waveband of 540 to 560 nm, working current: 0.02 A, working voltage: 5V, the acceptable wavelength range of detector of at least 620-650 nm.
Referring to Examples 1 and 3, Supreme Biotechnology (Brilliant White) detergent solution was prepared. […] Determination was carried out using a CD detector in the above two cases.

[9] = cmc by surface tension method; type: physicochemical; details: NMP without probe
Text: Based on the above speculation, the inventors also observed the change in the cmc value at different addition amounts of the NMP solvent (without the probe) used in the CUR-NMP probe solution using the surface tension method. When the addition amount of NMP is less than 1000, the cmc value determined is affected to some extent, but the effect is small. When the addition amount of NMP is less than 400, the cmc value determined is basically not affected, and the result is basically consistent with the result determined by fluorescence spectrometry and conforms to the inference.
FIG. 5 is a graph showing the curves obtained by determining the cmc of the above various brands of detergent solutions using the surface tension method.

[10] = HSP distance between solvent and curcumin (CUR)
[11] = total δ of solvent minus total δ of curcumin (CUR)
[12] = aqueous solution of Supreme Biotechnology (Bright White) laundry detergent, label = solvent for probe
[13] = aqueous solution of Supreme Biotechnology (Bright White) laundry detergent, label = solvent for probe (auxiliary agent)
[14] = HSP distance between solvent and pyrene
[15] = HSP distance between solvent and rhodamine B
[16] = total δ of solvent minus total δ of pyrene
[17] = total δ of solvent minus total δ of rhodamine B

| Ra [2, 10] | δ difference [2, 11] | cmc value, CUR, By Customized fluorescence photoelectric detector [8] [g/L] | Molecule | Flash point [3] [°C] | Viscosity [3] | Volatility/Boiling point [3] [°C] | cmc value range [4] [g/L] | cmc value range [5] [g/L] | Dispersion δD [7] | Hydrogen bonding δH [7] | Polarity δH [7] | Total δ [7] | also measured |
| --- | --- | --- | --- | --- | --- | --- | --- | --- | --- | --- | --- | --- | --- |
| 6.580 (MPa)^1/2 | 4.118 (MPa)^1/2 | – | OCCCCCO [1,5-Pentanediol] | 129 | 128 mPa · s | 242 | – | – | – | – | – | – | Probe solubility in solvent [1]: Soluble (0.01-0.1% is soluble) |
| – | – | – | Cc1cc(=O)oc2c3c4c(cc12)CCCN4CCC3 [C480, coumarin 480] | – | – | – | 0.3 to 1 | 0.05 to 0.2 | – | – | – | – | – |
| – | – | – | COc1cc(/C=C/C(=O)CC(=O)/C=C/c2ccc(O)c(OC)c2)ccc1O [CUR, curcumin] | – | – | – | 0.2 to 0.3 | 0.05 to 0.1 | – | – | – | – | – |
| 6.386 (MPa)^1/2 | −0.382 (MPa)^1/2 | 0.114 | CCOCCOCCO [Diethylene glycol monoethyl ether (DGME), Diethylene glycol monoethyl ether] | 94 | 3.85 mPa · s | 202 | – | – | 16.1 (MPa)^1/2 | 12.2 (MPa)^1/2 | 9.2 (MPa)^1/2 | 22.197 (MPa)^1/2 | cmc value, NR, By Fluorescence spectrophotometer [6, 12]: 0.089 g/L; cmc value, CUR, By Fluorescence spectrophotometer [6, 13]: 0.086 g/L; Ra [2, 14]: 16.995 (MPa)^1/2; Ra [2, 15]: 10.489 (MPa)^1/2; δ difference [2, 16]: −0.712 (MPa)^1/2; δ difference [2, 17]: −8.256 (MPa)^1/2; cmc value, NR, By Customized fluorescence photoelectric detector [8]: 0.074 g/L |
| 10.950 (MPa)^1/2 | 0.380 (MPa)^1/2 | 0.116 | CN1CCCC1=O [N-methylpyrrolidone (NMP), N-methylpyrrolidone] | 85 | 1.65 mPa · s | 204 | – | – | 18 (MPa)^1/2 | 7.2 (MPa)^1/2 | 12.3 (MPa)^1/2 | 22.959 (MPa)^1/2 | cmc value, NR, By Fluorescence spectrophotometer [6, 12]: 0.088 g/L; cmc value, CUR, By Fluorescence spectrophotometer [6, 13]: 0.100 g/L; Ra [2, 14]: 14.343 (MPa)^1/2; Ra [2, 15]: 12.708 (MPa)^1/2; δ difference [2, 16]: 0.050 (MPa)^1/2; δ difference [2, 17]: −7.494 (MPa)^1/2; cmc value, NR, By Customized fluorescence photoelectric detector [8]: 0.066 g/L; cmc ([9]; solvent content 0 (v organic solvent/v water)): 0.067 g/L; cmc ([9]; solvent content 0.4%): 0.076 g/L; cmc ([9]; solvent content 1%): 0.073 g/L; cmc ([9]; solvent content 2%): 0.101 g/L; cmc ([9]; solvent content 4%): 0.082 g/L; cmc ([9]; solvent content 10%): 0.131 g/L; cmc ([9]; solvent content 20%): 0.22 g/L |
| – | – | – | c1ccc(Nc2cccc3ccccc23)cc1 [NPN, N-phenyl-1-naphthylamine] | – | – | – | – | 0.02 to 0.05 | – | – | – | – | – |
| – | – | – | CCN(CC)c1ccc2nc3c4ccccc4c(=O)cc-3oc2c1 [NR, Nile red] | – | – | – | 0.2 to 0.3 | 0.05 to 0.1 | – | – | – | – | – |
| – | – | – | c1cc2ccc3cccc4ccc(c1)c2c34 [PYR, pyrene, reference compound] | – | – | – | 0.03 to 0.1 | 0.05 to 0.2 | 22.5 (MPa)^1/2 | 4 (MPa)^1/2 | 1.6 (MPa)^1/2 | 22.909 (MPa)^1/2 | – |
| – | – | – | CCN(CC)c1ccc2c(-c3ccccc3C(=O)O)c3ccc(=[N+](CC)CC)cc-3oc2c1 [RhB, rhodamine B, reference compound] | – | – | – | 0.3 to 1 | 0.1 to 0.15 | 16.7 (MPa)^1/2 | 18.5 (MPa)^1/2 | 17.5 (MPa)^1/2 | 30.453 (MPa)^1/2 | – |
| 15.204 (MPa)^1/2 | −7.679 (MPa)^1/2 | – | CCCCCC [n-Hexane] | – | – | 69 | – | – | – | – | – | – | Probe solubility in solvent [1]: Insoluble; Solvent solubility in water [3]: Insoluble |
| 3.753 (MPa)^1/2 | −2.022 (MPa)^1/2 | – | CCCCCCCCO [n-Octanol] | 81 | 8.93 mPa · s | 195 | – | – | 16 (MPa)^1/2 | 11.9 (MPa)^1/2 | 5 (MPa)^1/2 | 20.557 (MPa)^1/2 | Probe solubility in solvent [1]: Soluble (0.01-0.1% is soluble); Ra [2, 15]: 14.205 (MPa)^1/2; δ difference [2, 17]: −9.896 (MPa)^1/2; Solvent solubility in water [3]: Insoluble |
| – | – | 0.113 | Polyethylene glycol 200 [Polyethylene glycol 200 (PEG200)] | >100 | (22-23) mPa · s | – | – | – | – | – | – | – | cmc value, NR, By Fluorescence spectrophotometer [6, 12]: 0.062 g/L; cmc value, CUR, By Fluorescence spectrophotometer [6, 13]: 0.094 g/L; cmc value, NR, By Customized fluorescence photoelectric detector [8]: 0.069 g/L |

| Molecule | Ra [2, 10] | δ difference [2, 11] | cmc value, CUR, By Customized fluorescence photoelectric detector [8] [g/L] | Flash point [3] [°C] | Viscosity [3] | Volatility/Boiling point [3] [°C] | cmc value range [4] [g/L] | cmc value range [5] [g/L] | Dispersion δD [7] | Hydrogen bonding δH [7] | Polarity δH [7] | Total δ [7] | also measured |
| --- | --- | --- | --- | --- | --- | --- | --- | --- | --- | --- | --- | --- | --- |
| OCCO [Ethylene glycol] | – | – | 0.121 | – | – | – | – | – | – | – | – | – | cmc value, CUR, By Fluorescence spectrophotometer [6]: 0.102 g/L; cmc value, NR, By Fluorescence spectrophotometer [6]: 0.091 g/L |
